These are literature values, as cited in patent publication US7678393B1, “Mixture composition and method useful for topical and internal application” (DB Laboratories LLC, priority 2006, dated 2010).

In one series the test system is cyclooxygenase-2 (COX-2). The conditions noted are these: LPS stimulation.
Another series relates to iNOS. The conditions noted are these: LPS stimulation.
In a further series the test system is F0F1-ATPase/ATP synthase. The settings on record: micromolar concentrations.
The next series addresses Interlukin-2 (IL-2) (Homo sapiens, UniProt P60568). The conditions noted are these: by direct binding of IL-2.

Sequence of Interlukin-2 (IL-2) (P60568 21-153, species assumed): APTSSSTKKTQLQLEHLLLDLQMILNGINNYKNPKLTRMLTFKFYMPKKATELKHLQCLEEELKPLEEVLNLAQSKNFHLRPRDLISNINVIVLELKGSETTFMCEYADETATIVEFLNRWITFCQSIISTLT

For `O=c1c(O)c(-c2ccc(O)cc2)oc2cc(O)cc(O)c12` [kaempferol], in the series on cyclooxygenase-2 (COX-2), the “COX-2 activation by LPS” value was “inhibited”. Also, in the series with iNOS, the “iNOS activation by LPS” value was “inhibited”. In addition, the “inhibition of F0F1-ATPase/ATP synthase” value in the series with F0F1-ATPase/ATP synthase was “showed inhibition at micromolar concentrations”.
As for `Oc1ccc(/C=C/c2cc(O)cc(O)c2)cc1` [resveratol], the “inhibition of F0F1-ATPase/ATP synthase” value in the series with F0F1-ATPase/ATP synthase is recorded as “showed inhibition at micromolar concentrations”.
Turning to Lipoteichoic acid [LTA], the “bound in plasma lipoproteins, efficiency” value with plasma lipoproteins (plasma) is reported as > 95%. In the series on plasma lipoproteins (plasma lipoproteins), the “distribution in HDL” value is 68%±10%, the “distribution in LDL” value is given as 28%±8% and the “distribution in VLDL” value is 4%±5%. Also, the Interlukin-2 function result at Interlukin-2 (IL-2) is on record as “inhibits”.
For the compound `O=C(OC[C@H]1O[C@@H](OC(=O)c2cc(O)c(O)c(OC(=O)c3cc(O)c(O)c(O)c3)c2)[C@H](OC(=O)c2cc(O)c(O)c(OC(=O)c3cc(O)c(O)c(O)c3)c2)[C@@H](OC(=O)c2cc(O)c(O)c(OC(=O)c3cc(O)c(O)c(O)c3)c2)[C@@H]1OC(=O)c1cc(O)c(O)c(OC(=O)c2cc(O)c(O)c(O)c2)c1)c1cc(O)c(O)c(OC(=O)c2cc(O)c(O)c(O)c2)c1` [tannic acid], the “inhibition of F0F1-ATPase/ATP synthase” value in the series with F0F1-ATPase/ATP synthase is “showed inhibition at micromolar concentrations”.
Consider `O=c1cc(-c2ccc(O)cc2)oc2cc(O)cc(O)c12` [apigenin], for which, in the series with cyclooxygenase-2 (COX-2), the “COX-2 activation by LPS” value is recorded as “inhibited”. The “iNOS activation by LPS” value in the series on iNOS was “inhibited”.
Take `O=C(O[C@@H]1Cc2c(O)cc(O)cc2O[C@@H]1c1cc(O)c(O)c(O)c1)c1cc(O)c(O)c(O)c1` [(−)epigallocatechin-3-gallate]: the “COX-2 activation by LPS” value with cyclooxygenase-2 (COX-2) was “inhibited”. The “iNOS activation by LPS” value in the series with iNOS was “inhibited”. The “inhibition of F0F1-ATPase/ATP synthase” value in the series on F0F1-ATPase/ATP synthase is given as “showed inhibition at micromolar concentrations”.
